The values below come from patent publication US20090305993A1, “METHODS AND COMPOSITION FOR THE TREATMENT OF GASTROINTESTINAL DISORDERS” (IRONWOOD PHARMACEUTICALS, INC., priority 2006, published 2009).

Where a SMILES comes first, the peptide text is derived from it. Bridges are numbered along the chain shown (N, C = ends). Where no end group is shown, it is not given here.

The nature of data set [1]: oral bioavailability in rats, LCMS. In kind it is in vivo, rat. The conditions noted are these: plasma. The method, then:
Similarly, oral bioavailability was determined in rats using LCMS methodology. Rat plasma samples containing SEQ ID NO:3 and/or SEQ ID NO:6 were extracted using a Waters Oasis MAX 96 well solid phase extraction (SPE) plate. A 200 μL volume of rat plasma was mixed with 200 μL of ^13C9, ^15N—SEQ ID NO:3 in the well of a prepared SPE plate. The samples were drawn through the stationary phase with 15 mm Hg vacuum. All samples were rinsed with 200 μL of 2% ammonium hydroxide in water followed by 200 μL of 20% methanol in water. The samples were eluted with consecutive 100 μL volumes of […] formic acid/water/methanol and 100 μL 5/15/80 formic acid/water/methanol. The samples were dried under nitrogen and resuspended in 100 μL of 20% methanol in water. Samples were analyzed by a Waters Quattro Micro mass spectrometer coupled to a Waters 1525 binary pump with a Waters 2777 autosampler. A 40 μL volume of each sample was injected onto a Thermo Hypersil GOLD C18 column (2.1×50 mm, 5 um). SEQ ID NO:3 and SEQ ID NO:6 were eluted by a gradient over 3 minutes with acetonitrile and water containing 0.05% trifluoroacetic acid. The Quattro Micro mass spectrometer was run in multiple reaction monitoring (MRM) mode using the mass transitions of 764>182 and 682>136 for SEQ ID NO:3 and SEQ ID NO:6 respectively. Using this methodology, SEQ ID NO:3 was dosed orally and by IV to rats at 10 mg/kg. […] In this experiment, the limit of detection (LOD) for SEQ ID NO:6 was 0.78 nM. SEQ ID NO:6 was detected at all time points for the intravenous dose and was not detected beyond 240 min for the oral dose. For non-detected values, the LOD was used as an upper estimate of the concentration of SEQ ID NO:6. The calculated value for AUCp.o., (0-6h) was <1308 nM-min and AUCi.v.,(0-6h) was 1,590,000 nM-min. The 6 h bioavailability of SEQ ID NO:6 determined by circulating plasma levels was 0.08%

The next data set concerns the target T1, carboxypeptidase A (Homo sapiens, UniProt P15085).
T1 sequence (P15085 111-419): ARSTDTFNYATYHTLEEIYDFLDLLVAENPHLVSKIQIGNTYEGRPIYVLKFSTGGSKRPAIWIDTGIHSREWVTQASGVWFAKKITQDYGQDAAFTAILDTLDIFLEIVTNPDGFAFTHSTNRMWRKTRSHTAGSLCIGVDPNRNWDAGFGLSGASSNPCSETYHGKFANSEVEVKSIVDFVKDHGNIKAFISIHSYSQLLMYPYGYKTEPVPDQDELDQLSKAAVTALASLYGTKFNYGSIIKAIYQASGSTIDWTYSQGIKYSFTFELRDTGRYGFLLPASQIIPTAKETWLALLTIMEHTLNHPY
Nature of the data set: in vitro proteolytic stability, carboxypeptidase A. Here is the method: The stability of SEQ ID NO:3 in the presence of several mammalian digestive enzymes was determined. SEQ ID NO:3 was exposed to a variety of in vitro conditions including digestive enzymes and low ph environments designed to simulate gastric fluid. SEQ ID NO:3 was incubated with chymotrypsin, trypsin, pepsin, aminopeptidase, carboxypeptidase A, and simulated gastric fluid (sgf) at ph 1.0. Samples were collected at 0, 3, and 24 h for all conditions except pepsin digestion and the SGF. For the latter two conditions, samples were obtained at 0, 1, and 3 h. Negative control samples were prepared for initial and final time points. A separate, positive activity control was run in parallel to SEQ ID NO:3. All samples were analyzed by LC/MS
Five (5) μL of a 40 μg/mL carboxypeptidase inhibitor (carboxypeptidase inhibitor from potato tuber (Sigma-Aldrich, C0279) stock was added to each control sample (0 and 24 h), for a final concentration of 0.4 μg/mL. All control and test (0, 3 and 24 h) samples were incubated at 37° C. for 5 min. Twenty (20) μL of a 0.01 mg/mL carboxypeptidase A (Carboxypeptidase A from human pancreas; Sigma-Aldrich, C5358) stock was added to each sample. The samples were returned to the 37° C. water bath. The reaction was quenched with 5 μL of a 40 μg/mL carboxypeptidase inhibitor at the proper time point. No extra carboxypeptidase inhibitor was added to the control samples since there was already inhibitor present. Samples were subsequently flash frozen in liquid nitrogen, and stored at −80° C. until analysis. Upon analysis, samples were thawed and transferred to a 1 mL 96-well deep microtiter plate. […] These standards were used to generate a standard curve for quantification of samples. When necessary, the standard curves were also used to calculate the concentration of the corresponding digestion product. Ten (10) μL injections were made of each sample and standard.
To further study the SEQ ID NO:3 carboxypeptidase A digestion product, samples of 0.01 mg/mL SEQ ID NO:3 were prepared in the carboxypeptidase A reaction buffer at a total volume of 500 μL in 2 mL eppendorf tubes. Triplicate samples were prepared for the following time points: 0, 15, 30, 60, 120, 180 and 240 min. The samples were incubated at 37° C. for 5 min. Twenty (20) μL of a 0.01 mg/mL carboxypeptidase A stock were added to each sample and returned to the 37° C. water bath. The reactions were quenched with 5 μL of a 40 μg/mL carboxypeptidase inhibitor at the proper time points. Samples were subsequently flash frozen in liquid nitrogen, and stored at −80° C. until analysis. Upon analysis, samples were thawed and transferred to a 1 mL 96-well plate. Standards of SEQ ID NO:3 were prepared in carboxypeptidase A reaction buffer at 0.625, 1.25, 2.50, 5.00, and 10.00 μg/mL concentrations. These standards were used to generate a standard curve for quantification of samples. When necessary, the standard curves were also used to calculate the concentration of the corresponding digestion product. Ten (10) μL injections were made of each sample and standard. If the formation of a digestion product was evident, then a spectral analysis was used to determine the mass of the digestion product, and predict its possible identity.

In another data set the test system is CD1 female mice. Nature of the data set: murine gastrointestinal transit assay, chronic dosing. Type of data set: in vivo, mouse. The following applies: oral, daily for 5 days; SEQ ID NO:3 0.06 or 0.25 mg/kg; FIG. 4c. Here is the method: The identical experiment was performed to determine if SEQ ID NO:3 is effective in a chronic dosing treatment regimen. Briefly, 8 week old CD1 female mice are dosed orally once a day for 5 days with either SEQ ID NO:3 (0.06 mg/kg or 0.25 mg/kg in 20 mM Tris pH 7.5) or vehicle alone (20 mM Tris pH 7.5). On the 5th day, a GIT assay is performed identical to that above except 200 μl of a 10% charcoal solution is administered. […] The results are shown side by side with acute dosing (1 day).

The subject of the next data set is suckling mice. Kind of data set: suckling mouse model of intestinal secretion (SuMi assay). Type of data set: in vivo. The method, then: In this model a test compound is administered to suckling mice that are between 7 and 9 days old. After the mice are sacrificed, the gastrointestinal tract from the stomach to the cecum is dissected (“guts”). The remains (“carcass”) as well as the guts are weighed and the ratio of guts to carcass weight is calculated. If the ratio is above 0.09, one can conclude that the test compound increases intestinal secretion. […] The effect of Zelnorm® was also studied.

The next data set relates to mice. Kind of data set: murine gastrointestinal transit (GIT) assay, acute dosing. Type of data set: in vivo, mouse. The conditions noted are these: for gastrointestinal transit rate: oral, SEQ ID NO:4 0.1 mg/kg, Zelnorm 0.1 mg/kg, FIG. 3a, 3b; for intestinal transit rate versus dosage: recombinantly synthesized peptides, FIG. 4a. Here is the method: In order to determine whether the peptides increase the rate of gastrointestinal transit, the peptides and controls were tested using a murine gastrointestinal transit (GIT) assay (Moon et al. Infection and Immunity 25:127, 1979). In this assay, charcoal, which can be readily visualized in the gastrointestinal tract is administered to mice after the administration of a test compound. The distance traveled by the charcoal is measured and expressed as a percentage of the total length of the […].
Mice were fasted with free access to water for 12 to 16 hours before the treatment with peptide or control buffer. The peptides were orally administered at 1 μg/kg-1 mg/kg of peptide in buffer (20 mM Tris pH 7.5) 7 minutes before being given an oral dose of 5% Activated Carbon (Aldrich 242276-250G). Control mice were administered buffer only before being given a dose of Activated Carbon. After 15 minutes, the mice were sacrificed and their intestines from the stomach to the cecum were dissected. The total length of the intestine as well as the distance traveled from the stomach to the charcoal front was measured for each animal and the results are expressed as the percent of the total length of the intestine traveled by the charcoal front. All results are reported as the average of 10 mice±standard deviation. A comparison of the distance traveled by the charcoal between the mice treated with peptide versus the mice treated with vehicle alone was performed using a Student's t test and a statistically significant difference was considered for P<0.05. P-values are calculated using a two-sided T-Test assuming unequal variances.

Data set [2] deals with T2, GC-C receptors found in rat intestinal mucosa (Rattus norvegicus, UniProt P23897).
T2 construct: Epithelial cells from the small intestine of rats were obtained; from tissue; host or cells: rat small intestine mucosa / epithelial cell suspension
The conditions noted are these: same assay, observed by Giannella et al.; cited from earlier work.

Another data set has as its target T3, intestinal GC-C receptor (Homo sapiens, UniProt P25092).
T3 construct: monolayers of T84 cells in 24-well plates; host or cells: T84 human colon carcinoma cells
Nature of the data set: intestinal GC-C receptor activity assay (cyclic GMP EIA) in T84 cells. Type of data set: cell-based. The following applies: chemically synthesized peptides, FIGS. 2a and 2b. Here is the method:
The ability of SEQ ID NO:5, SEQ ID NO:4, SEQ ID NO:3, and SEQ ID NO:6 to activate the intestinal GC-C receptor was assessed in an assay employing the T84 human colon carcinoma cell line (American Type Culture Collection (Bethesda, Md.)). For the assays cells were grown to confluency in 24-well culture plates with a 1:1 mixture of Ham's F12 medium and Dulbecco's modified Eagle's medium (DMEM), supplemented with 5% fetal calf serum and were used at between passages 54 and 60.
Briefly, monolayers of T84 cells in 24-well plates were washed twice with 1 ml/well DMEM, then incubated at 37° C. for 10 min with 0.45 ml DMEM containing 1 mM isobutylmethylxanthine (IBMX), a cyclic nucleotide phosphodiesterase inhibitor. Test peptides (50 μl) were then added and incubated for 30 minutes at 37° C. The media was aspirated and the reaction was then terminated by the addition of ice cold 0.5 ml of 0.1N HCl. The samples were held on ice for 20 minutes and then evaporated to dryness using a heat gun or vacuum centrifugation.

Another data set relates to mouse. Nature of the data set: phenylbenzoquinone (PBQ)-induced writhing model. The following applies: oral; SEQ ID NO:5 1 mg/kg, SEQ ID NO:3 2.5 mg/kg; versus vehicle control, FIGS. 8a, 8b.
The mark [3] stands for this setting: recombinant peptides, dose response, FIG. 6a.

T3 sequence (P25092 24-1073): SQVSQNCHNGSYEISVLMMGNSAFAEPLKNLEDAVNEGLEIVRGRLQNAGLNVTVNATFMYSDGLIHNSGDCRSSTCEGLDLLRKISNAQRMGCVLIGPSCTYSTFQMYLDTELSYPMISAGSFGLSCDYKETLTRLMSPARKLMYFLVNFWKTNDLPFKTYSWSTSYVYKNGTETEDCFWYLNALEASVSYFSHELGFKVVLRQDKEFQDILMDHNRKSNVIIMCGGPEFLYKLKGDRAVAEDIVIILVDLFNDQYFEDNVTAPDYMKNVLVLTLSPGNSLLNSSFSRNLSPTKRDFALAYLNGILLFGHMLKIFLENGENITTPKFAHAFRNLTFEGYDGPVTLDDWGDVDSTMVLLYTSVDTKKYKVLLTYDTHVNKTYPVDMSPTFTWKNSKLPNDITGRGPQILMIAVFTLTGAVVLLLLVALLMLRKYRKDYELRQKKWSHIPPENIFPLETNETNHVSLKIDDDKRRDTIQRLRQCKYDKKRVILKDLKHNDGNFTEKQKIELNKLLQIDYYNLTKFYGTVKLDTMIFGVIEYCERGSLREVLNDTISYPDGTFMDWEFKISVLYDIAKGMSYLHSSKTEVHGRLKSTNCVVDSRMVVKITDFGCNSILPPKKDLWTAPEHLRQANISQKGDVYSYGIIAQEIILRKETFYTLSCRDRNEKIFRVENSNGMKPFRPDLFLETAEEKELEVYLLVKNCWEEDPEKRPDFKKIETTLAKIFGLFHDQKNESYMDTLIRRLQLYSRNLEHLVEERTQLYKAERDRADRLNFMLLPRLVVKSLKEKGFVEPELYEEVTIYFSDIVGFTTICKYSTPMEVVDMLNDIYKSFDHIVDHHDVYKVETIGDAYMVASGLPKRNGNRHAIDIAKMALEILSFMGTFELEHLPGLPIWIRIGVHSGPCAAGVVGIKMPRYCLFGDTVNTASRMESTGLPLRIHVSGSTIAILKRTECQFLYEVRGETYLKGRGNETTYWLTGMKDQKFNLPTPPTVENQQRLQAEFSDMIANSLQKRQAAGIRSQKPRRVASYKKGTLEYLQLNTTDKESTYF
T2 sequence (P23897 23-1072): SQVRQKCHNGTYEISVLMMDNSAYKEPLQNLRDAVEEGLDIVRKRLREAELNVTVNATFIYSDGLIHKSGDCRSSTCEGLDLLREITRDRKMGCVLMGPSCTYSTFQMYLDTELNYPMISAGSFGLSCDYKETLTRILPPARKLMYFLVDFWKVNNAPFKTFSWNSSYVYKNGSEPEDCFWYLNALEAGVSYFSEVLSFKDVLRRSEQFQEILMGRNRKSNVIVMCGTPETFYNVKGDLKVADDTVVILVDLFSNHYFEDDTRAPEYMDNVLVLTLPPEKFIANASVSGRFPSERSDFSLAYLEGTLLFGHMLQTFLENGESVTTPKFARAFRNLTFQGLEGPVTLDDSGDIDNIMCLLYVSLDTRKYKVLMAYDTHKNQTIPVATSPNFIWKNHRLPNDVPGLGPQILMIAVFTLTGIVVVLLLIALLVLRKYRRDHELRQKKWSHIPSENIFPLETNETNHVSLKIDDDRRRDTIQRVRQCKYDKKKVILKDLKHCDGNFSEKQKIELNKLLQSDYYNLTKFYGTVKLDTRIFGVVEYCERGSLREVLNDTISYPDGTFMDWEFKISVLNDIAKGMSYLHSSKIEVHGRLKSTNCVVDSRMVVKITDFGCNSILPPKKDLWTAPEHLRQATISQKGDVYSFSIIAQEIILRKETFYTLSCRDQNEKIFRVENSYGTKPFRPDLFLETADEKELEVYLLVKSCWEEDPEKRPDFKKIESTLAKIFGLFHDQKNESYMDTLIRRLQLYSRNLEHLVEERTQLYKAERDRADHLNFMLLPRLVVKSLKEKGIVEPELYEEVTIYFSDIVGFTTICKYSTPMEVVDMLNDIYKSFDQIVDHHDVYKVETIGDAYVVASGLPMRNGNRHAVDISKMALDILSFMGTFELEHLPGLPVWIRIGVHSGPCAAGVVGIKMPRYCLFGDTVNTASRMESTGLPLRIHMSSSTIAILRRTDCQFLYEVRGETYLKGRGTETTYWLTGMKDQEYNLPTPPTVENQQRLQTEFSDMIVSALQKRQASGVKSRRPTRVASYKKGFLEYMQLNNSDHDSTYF

In the case of `C[C@@H]1NC(=O)[C@@H]2CCCN2C(=O)[C@H](CC(N)=O)NC(=O)[C@@H]2CSSC[C@H](N)C(=O)N[C@H]3CSSC[C@H](NC1=O)C(=O)N[C@@H]([C@@H](C)O)C(=O)NCC(=O)N[C@H](C(=O)O)CSSC[C@H](NC(=O)[C@H](Cc1ccc(O)cc1)NC(=O)[C@H](CCC(=O)O)NC3=O)C(=O)N2` [SEQ ID NO:6] (H-CCEYCCNPACTGC-OH; disulfide 1-6, 2-10, 5-13), the “AUC, intravenous dose (AUCi.v.,(0-6h))” value in data set [1] (10 mg/kg IV) is 1,590,000 nM-min. The “AUC, oral dose (AUCp.o.,(0-6h))” value in data set [1] (10 mg/kg oral) is given as under 1308 nM-min. Further, the average concentration is recorded as 108 (+/−2) nM at carboxypeptidase A (carboxypeptidase A digestion of SEQ ID NO:3, T0) and 726 (+/−138) nM at carboxypeptidase A (carboxypeptidase A digestion of SEQ ID NO:3, T240 (240 min)).

Regarding `[H]/N=C(/NCCCCC)N/N=C/c1c[nH]c2ccc(OC)cc12` [Zelnorm®, tegaserod, reference compound], in the data set on CD1 female mice, the “gastrointestinal motility upon chronic dosing” value was “effective”. Moreover, the “intestinal secretion (ratio of guts to carcass weight)” value with suckling mice (0.2 mg/kg) is on record as “does not increase intestinal secretion”. The gastrointestinal transit rate entry in the data set with mice was “increase gastrointestinal transit rate”.

For orientation: Kd means a measure of binding affinity in units of concentration. NSSNYCCELCCNPACTGCY [SEQ ID NO:4]: the “intestinal secretion (ratio of guts to carcass weight)” value in the data set with suckling mice (dose response, FIG. 5a, 5b) is “increase intestinal secretion”. Also, in the data set with suckling mice (setting [3]), the “intestinal secretion (ratio of guts to carcass weight)” value is given as “increase intestinal secretion”. Besides, in data set [2], the Kd was about 13 nM. The “intestinal transit rates versus Tris buffer and Zelnorm” value in the data set on mice (chemically synthesized peptides, FIG. 4b) is recorded as “increase intestinal transit rates more than either Tris buffer alone or an equivalent dose of Zelnorm®”. In the data set with mice, the gastrointestinal transit rate entry is listed as “increase gastrointestinal transit rate” and the “intestinal transit rate versus dosage” value is “increases with an increasing dosage”. Further, the “activity in GC-C receptor activity assay” value on intestinal GC-C receptor is “activity comparable to SEQ ID NO:4”.

For the compound “NSSNYCCEYCCNPACTGCY (cysteine pairing not given here) [SEQ ID NO:5]”, the “intestinal secretion (ratio of guts to carcass weight)” value in the data set with suckling mice (setting [3]) was “increase intestinal secretion”. The “intestinal transit rate versus dosage” value with mice is given as “increases with an increasing dosage”. Further, the writhings result in the data set on mouse is “Significant reductions in writhings”.
